In PubChem BioAssay (NCI):
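1) Cells in 96-well plates. 2) Compound, 48 h, 5 concentrations. 3) Linear interpolation between surrounding doses. 4) Unreached endpoint = highest concentration. GI50 marks 50% less growth. The concentration for full growth arrest is given as TGI.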

Tests used:
Experiment in all cases: NCI-60 cell line screen, 48 h
[1] = test system: COLO 205 colon
[2] = test system: DU-145 prostate
[3] = test system: EKVX NSCLC
[4] = test system: HCT-15 colon
[5] = test system: MDA-MB-435
[6] = test system: NCI-H460 lung
[7] = test system: SF-539 CNS
[8] = test system: SK-MEL-2 melanoma
[9] = test system: SK-MEL-5 melanoma
[10] = test system: SW-620 colon

SMILES | GI50 [1] | TGI [1] | GI50 [2] | TGI [2] | GI50 [3] | TGI [3] | GI50 [4] | TGI [4] | GI50 [5] | TGI [5] | GI50 [6] | TGI [6] | GI50 [7] | TGI [7] | GI50 [8] | TGI [8] | GI50 [9] | TGI [9] | GI50 [10] | TGI [10]
CC(CN=C(CC(=O)c1ccc(Br)cc1)c1ccccc1)N=C(CC(=O)c1ccc(Br)cc1)c1ccccc1 (stereo not given) | 7.58 µM | > 100 µM | 64.4 µM | > 100 µM | 21 µM | > 100 µM | 43.6 µM | > 100 µM | 41.8 µM | > 100 µM | 5.38 µM | > 100 µM | > 100 µM | > 100 µM | 3.48 µM | > 100 µM | 2.18 µM | 8.9 µM | > 100 µM | > 100 µM
O=c1[nH]cc(CS(=O)(=O)Cc2c[nH]c(=O)[nH]c2=O)c(=O)[nH]1 |  | > 100 µM |  | > 100 µM |  | > 100 µM |  | > 100 µM |  | > 100 µM |  | > 100 µM |  | > 100 µM |  | > 100 µM |  | > 100 µM |  | > 100 µM
S=c1nc(-c2nc(=S)[nH]c3c2CCCCCCCCCC3)c2c([nH]1)CCCCCCCCCC2 |  | > 100 µM |  | > 100 µM |  | > 100 µM |  | > 100 µM |  | > 100 µM |  | > 100 µM |  | > 100 µM |  | > 100 µM |  | > 100 µM |  | > 100 µM
Cc1ccc2nc3c(C)c(Cl)c(=O)cc-3sc2c1 |  | > 80.8 µM |  | > 100 µM |  | > 95.6 µM |  | > 100 µM |  | 39.7 µM |  | 97.4 µM |  | 62.3 µM |  | 37.5 µM |  | 29.7 µM |  | > 100 µM
O=C1NC(=O)/C(=C/C=C/c2ccccc2)S1 | 14.4 µM | > 48.3 µM | 3.76 µM | 36.6 µM | 6.1 µM | > 100 µM | 9.3 µM | 51.7 µM | 5.46 µM | > 78.7 µM | 2.83 µM | 13.8 µM | 0.384 µM | 3.16 µM | 24.4 µM | > 79.3 µM | 2.58 µM | 22.5 µM | 11.2 µM | > 59.1 µM
C/C(=C\c1ccc(Cl)cc1)C(C)(C)C(=O)O |  | > 100 µM |  | > 100 µM |  | > 100 µM |  | > 100 µM |  | > 100 µM |  | > 100 µM |  | > 100 µM |  | > 100 µM |  | > 100 µM |  | > 100 µM
Nc1ccc(-c2nc3ccc4[nH]ncc4c3c3c2CCCC3)cc1F | 1.42 µM | 6.77 µM | 1.46 µM | 20.2 µM | 0.215 µM | 3.92 µM | 0.691 µM | 8.05 µM | 1.38 µM | 5.61 µM | 0.959 µM | 8.51 µM | 1.38 µM | 5.85 µM | 1.27 µM | 6.19 µM | 0.986 µM | 4.53 µM | 0.907 µM | 7.52 µM
CCOC1OCCCC1Br (stereo not given) |  | > 100 µM |  | > 100 µM |  | > 100 µM |  | > 100 µM |  | > 100 µM |  | > 100 µM |  | > 100 µM |  | > 100 µM |  | > 100 µM |  | > 100 µM
